According to patent US8722910B2, “Diyne compositions” (Evolva AG, priority 2009, dated 2014):
In brackets after ≈: the same amount, converted by molar mass. Read-outs that look alike come from different tables or passages of the source.

How the values were obtained:
T. terrestre = assay: In vitro antifungal activity vs. dermatophytes (MIC/MFC); assay type: cell-based; conditions: T. terrestre (n = 1)
M. gallinae = assay: as above; assay type: cell-based; conditions: M. gallinae (n = 1)
C. albicans SC5314 = assay: MIC versus reference Candida strains (broth micro dilution); assay type: cell-based
all dermatophyte strains = assay: MIC and MFC range over all dermatophyte strains tested; assay type: cell-based, dermatophytes; conditions: Table 14 strains
[1] = tested on: Enterobacter faecalis 29212; assay: In vitro Antibacterial Activity; assay type: cell-based
Escherichia coli 700 = assay: In vitro Antibacterial Activity; assay type: cell-based
[2] = In vitro Mammalian Cell Cytotoxicity; assay type: cell-based; conditions: African green monkey, Vero cells
[3] = In vitro Mammalian Cell Cytotoxicity; assay type: cell-based; conditions: human, HFF cells
C. albicans [4] = assay: Time course of the fungicidal effect; assay type: cell-based; conditions: after 3 hours of incubation
From the text: Samples were removed periodically, filtered, washed and plated onto nutrient agar.

ergosterol biosynthesis = assay: 13C-acetate incorporation into ergosterol; assay type: cell-based, Candida albicans; conditions: drug at about its MIC, added after the first 15 minutes
Candida albicans [5] = assay: Mouse vaginal infection, topical dosing; assay type: in vivo; conditions: mice; topically 0.01% daily for five days
Method: The efficacy of compound III″ in vaginal infections of small mammals has been shown. Mice were vaginally infected with Candida albicans. Compound III″ was administered topically at 0.01% daily for five days. Fungal burden decreased 86% compared to the untreated control (see FIG. 14 showing vaginal fungal burden as determined by colony forming units (CFU) from vaginal lavage fluid).

C. albicans ATCC-24433 = assay: MIC versus reference Candida strains (broth micro dilution); set-up: MICs (100% inhibition): unit not given beside the values; conditions: for MIC: Candida albicans
C. albicans ATCC-90028 = assay: as above; set-up: MICs (100% inhibition): unit not given beside the values; conditions: for MIC: Candida albicans
C. glabrata ATCC-90030 = assay: as above; set-up: MICs (100% inhibition): unit not given beside the values; conditions: for MIC: Nakaseomyces glabratus
C. krusei ATCC-6258 = assay: as above; set-up: MICs (100% inhibition): unit not given beside the values; conditions: for MIC: Pichia kudriavzevii
[6] = tested on: C. parapsilosis ATCC-22019; assay: as above; set-up: MICs (100% inhibition): unit not given beside the values; conditions: for MIC: Lodderomyces parapsilosis
[7] = tested on: C. parapsilosis ATCC-90018; assay: as above; set-up: MICs (100% inhibition): unit not given beside the values; conditions: for MIC: Lodderomyces parapsilosis
C. tropicalis ATCC-750 = assay: as above; set-up: MICs (100% inhibition): unit not given beside the values; conditions: for MIC: Candida tropicalis
Coccidioides spp. = assay: microbe, parasite or virus in culture; assay type: cell-based
C. albicans [8] = assay: Mice infected systemically with C. albicans, oral dosing, kidney burden; assay type: in vivo; conditions: orally twice daily for 3 days, vs untreated
Method: Mice were infected systemically with C. albicans. Compound IV″ was administered orally twice daily for 3 days at 5 mg/kg or 10 mg/kg per dose. Kidney fungal burden decreased by 88% and 94% respectively, compared to the untreated control (as shown in FIG. 12 showing kidney fungal burden as determined by colony forming units (CFU) per gram of homogenised tissue).

Aspergillus fumigatus = assay: Growth inhibition alone and combined with Amphotericin B (visual); assay type: cell-based
Method: (§1) Potassium (Z)-14-(furan-2-yl)tetradeca-9-en-11,13-diynoate was tested against Aspergillus fumigatus and various Candida species alone to determine antifungal activity and in various combinations with Amphotericin B to determine if any synergistic or antagonistic interactions may occur.
(§2) Amphotericin B and potassium (Z)-14-(furan-2-yl)tetradeca-9-en-11,13-diynoate were added to an in vitro culture of different fungi in various concentrations and the culture was visually inspected. If there is inhibition of growth the culture will remain optically clear, whereas growth results in a hazy culture. The results are shown in FIG. 5, where 0 means optically clear (i.e. no growth), 1 means slightly hazy, 2 means prominent decrease (at least 50%) in visible growth, 3 means slight reduction in visible growth and 4 means no reduction in visible growth.

Candida albicans [9] = assay: as above; assay type: cell-based; conditions: 2 μg/ml and lower
Method: as §1, §2

Candida glabrata = assay: as above; assay type: cell-based
Method: as §1, §2

Candida parapsilosis = assay: as above; assay type: cell-based; conditions: 2 μg/ml and lower
Method: as §1, §2

Question: Which results are given for `O=C(O)CCCCCCC/C=C\C#CC#Cc1ccco1` [Compound III″]?
Answer: MIC (T. terrestre; 96 h, 35° C., 4 days): < 0.06 ng/mL; MFC (T. terrestre): 16000 ng/mL (≈ 56.3 µM); MIC90/MIC range 48 h (T. terrestre; 48 h): <0.06 ng/mL; MIC (M. gallinae; 96 h, 35° C., 4 days): < 0.06 ng/mL; MFC (M. gallinae): 4000 ng/mL (≈ 14.1 µM); MIC90/MIC range 48 h (M. gallinae; 48 h): <0.06 ng/mL; MIC (C. albicans SC5314): 0.5 ng/mL (≈ 0.00176 µM); MFC range against dermatophytes (all dermatophyte strains): <0.06 to 16000 ng/mL; MIC range against all dermatophyte strains (all dermatophyte strains): <0.06 to 1000 ng/mL; MIC90 [1]: 12500 ng/mL (≈ 44 µM); MIC90 (Escherichia coli 700): > 200000 ng/mL; CC50 [2]: 46000 ng/mL (≈ 162 µM); CC50 [3]: 75000 ng/mL (≈ 264 µM); reduction in C. albicans CFUs (C. albicans [4]): > 3 log; net biosynthesis of ergosterol (13C-acetate incorporation) (ergosterol biosynthesis): did not significantly inhibit the net biosynthesis of ergosterol; decrease of vaginal fungal burden (CFU, lavage fluid) (Candida albicans [5]): 86%; MIC (C. albicans ATCC-24433; ATCC24433): 1.25 ng/mL (≈ 0.0044 µM); MIC (C. albicans ATCC-90028; ATCC90028): 1.25 ng/mL (≈ 0.0044 µM); MIC (C. glabrata ATCC-90030; ATCC90030): 10 ng/mL (≈ 0.0352 µM); MIC (C. krusei ATCC-6258; ATCC6258): 10 ng/mL (≈ 0.0352 µM); MIC ([6]; ATCC22019): 2560 ng/mL (≈ 9 µM); MIC ([7]; ATCC90018): 2560 ng/mL (≈ 9 µM); MIC (C. tropicalis ATCC-750; ATCC750): 2.5 ng/mL (≈ 0.00879 µM)

Question: What does the source list for `O=C([O-])CCCCCCC/C=C\C#CC#Cc1ccco1.[K+]` [Compound IV″, potassium (Z)-14-(furan-2-yl)tetradeca-9-en-11,13-diynoate]?
Answer: MIC90/MIC range 48 h (Coccidioides spp.; Coccidioides spp. (n = 30), MIC90): 30 ng/mL; MIC90 (Coccidioides spp.; Coccidioides, 48 h): 30 ng/mL; MIC (C. albicans SC5314): 1.25 ng/mL; decrease of kidney fungal burden (C. albicans [8]; 5 mg/kg per dose): 88%; decrease of kidney fungal burden (C. albicans [8]; 10 mg/kg per dose): 94%; interaction with Amphotericin B (Aspergillus fumigatus): Synergism was observed; inhibition of growth (Candida albicans [9]): clearly inhibits growth; interaction with Amphotericin B (Candida glabrata): Synergism was observed; inhibition of growth (Candida glabrata; 2 μg/ml and lower): clearly inhibits growth; inhibition of growth by the combination (Candida glabrata; AmphothericinB/potassium salt 250/2.5 ng/ml or 125/10 ng/ml): clearly inhibit growth; inhibition of growth (Candida parapsilosis): clearly inhibits growth; MIC breakpoints (C. albicans ATCC-24433; C. albicans ATCC 24433, CLSI M27-A3, growth inhibition of 100%, 35° C., 24 hrs): 2.5 ng/mL; MICs (100% inhibition) (C. albicans ATCC-24433; C. albicans ATCC 24433, NCCLS M27A, 35° C., 24 hrs): 2.5; MIC (C. albicans ATCC-24433; ATCC24433, read-out: minimal inhibitory concentrations): 2.5 ng/mL; MIC breakpoints (C. albicans ATCC-90028; C. albicans ATCC 90028, CLSI M27-A3, growth inhibition of 100%, 35° C., 24 hrs): 5 ng/mL; MICs (100% inhibition) (C. albicans ATCC-90028; C. albicans ATCC 90028, NCCLS M27A, 35° C., 24 hrs): 5; MIC (C. albicans ATCC-90028; ATCC90028, read-out: minimal inhibitory concentrations): 5 ng/mL; MIC breakpoints (C. glabrata ATCC-90030; C. glabrata ATCC 90030, CLSI M27-A3, growth inhibition of 100%, 35° C., 24 hrs): 60 ng/mL; MICs (100% inhibition) (C. glabrata ATCC-90030; C. glabrata ATCC 90030, NCCLS M27A, 35° C., 24 hrs): 60; MIC (C. glabrata ATCC-90030; ATCC90030): 20 ng/mL; MIC (C. glabrata ATCC-90030; ATCC90030, read-out: minimal inhibitory concentrations): 60 ng/mL; MIC breakpoints (C. krusei ATCC-6258; C. krusei ATCC 6258, CLSI M27-A3, growth inhibition of 100%, 35° C., 24 hrs): 60 ng/mL; MICs (100% inhibition) (C. krusei ATCC-6258; C. krusei ATCC 6258, NCCLS M27A, 35° C., 24 hrs): 60; MIC (C. krusei ATCC-6258; ATCC6258): 20 ng/mL; MIC (C. krusei ATCC-6258; ATCC6258, read-out: minimal inhibitory concentrations): 60 ng/mL; MIC breakpoints ([6]; C. parapsilosis ATCC 22019, CLSI M27-A3, growth inhibition of 100%, 35° C., 24 hrs): 10240 ng/mL; MICs (100% inhibition) ([6]; C. parapsilosis ATCC 22019, NCCLS M27A, 35° C., 24 hrs): 10240; MIC ([6]; ATCC22019, read-out: minimal inhibitory concentrations): 10200 ng/mL; MIC breakpoints ([7]; C. parapsilosis ATCC 90018, CLSI M27-A3, growth inhibition of 100%, 35° C., 24 hrs): >10240 ng/mL; MICs (100% inhibition) ([7]; C. parapsilosis ATCC 90018, NCCLS M27A, 35° C., 24 hrs): >10240; MIC ([7]; ATCC90018, read-out: minimal inhibitory concentrations): > 10200 ng/mL; MIC breakpoints (C. tropicalis ATCC-750; C. tropicalis ATCC 750, CLSI M27-A3, growth inhibition of 100%, 35° C., 24 hrs): 7.5 ng/mL; MICs (100% inhibition) (C. tropicalis ATCC-750; C. tropicalis ATCC 750, NCCLS M27A, 35° C., 24 hrs): 7.5; MIC (C. tropicalis ATCC-750; ATCC750): 5 ng/mL; MIC (C. tropicalis ATCC-750; ATCC750, read-out: minimal inhibitory concentrations): 7.5 ng/mL
